Test results taken from ChEMBL document CHEMBL1201862, “PubChem BioAssay data set” (2004).
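48-hour exposure; five concentrations; linearly interpolated endpoints. At the GI50, growth is halved.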 Calls of active or inactive are those of the source. Rule as the data show it: active = GI50 up to about 1.1 µM and inactive = higher.

Tests used:
Test in all cases: DTP human tumour cell line panel, 48 h
LXFL 529 = tested on: LXFL 529
SF-295 = tested on: SF-295
HL-60 = tested on: HL-60
KM-20L2 = tested on: KM-20L2
DLD-1 = tested on: DLD-1
NCI-H226 = tested on: NCI-H226
SN12C = tested on: SN12C
RXF 631 = tested on: RXF 631
SK-MEL-5 = tested on: SK-MEL-5
XF498 = tested on: XF498
SK-MEL-2 = tested on: SK-MEL-2
COLO 205 = tested on: COLO 205
EKVX = tested on: EKVX
DMS-273 = tested on: DMS-273
KM12 = tested on: KM12
M14 = tested on: M14
M19-MEL = tested on: M19-MEL
OVCAR-3 = tested on: OVCAR-3
Malme-3M = tested on: Malme-3M
SW-620 = tested on: SW-620
HCC 2998 = tested on: HCC 2998
UACC-62 = tested on: UACC-62
HCT-15 = tested on: HCT-15
CCRF-CEM = tested on: CCRF-CEM
NCI-H460 = tested on: NCI-H460
SF-539 = tested on: SF-539
SNB-75 = tested on: SNB-75
UO-31 = tested on: UO-31
786-0 = tested on: 786-0
ACHN = tested on: ACHN
IGROV-1 = tested on: IGROV-1
U-251 = tested on: U-251
A549 = tested on: A549
RPMI-8226 = tested on: RPMI-8226
OVCAR-8 = tested on: OVCAR-8
SK-OV-3 = tested on: SK-OV-3
UACC-257 = tested on: UACC-257
SK-MEL-28 = tested on: SK-MEL-28
SNB-19 = tested on: SNB-19
HCT-116 = tested on: HCT-116
SR = tested on: SR
OVCAR-4 = tested on: OVCAR-4
HOP-62 = tested on: HOP-62
MOLT-4 = tested on: MOLT-4
TK-10 = tested on: TK-10
SNB-78 = tested on: SNB-78
CAKI-1 = tested on: CAKI-1
HOP-92 = tested on: HOP-92
NCI-H23 = tested on: NCI-H23
NCI-H522 = tested on: NCI-H522
OVCAR-5 = tested on: OVCAR-5
LOX IMVI = tested on: LOX IMVI
K562 = tested on: K562
HOP-18 = tested on: HOP-18
HT-29 = tested on: HT-29
A498 = tested on: A498
SF-268 = tested on: SF-268
DMS-114 = tested on: DMS-114

COc1cc(-c2nccc3cc(OC)c(OC)cc23)ccc1O
GI50 (LXFL 529): 29.7 µM (inactive) | GI50 (SF-295): 25.6 µM (inactive) | GI50 (HL-60): 17.7 µM (inactive) | GI50 (KM-20L2): 33.7 µM (inactive) | GI50 (DLD-1): 76.4 µM (inactive) | GI50 (NCI-H226): > 100 µM (inactive) | GI50 (SN12C): 48.2 µM (inactive) | GI50 (RXF 631): 62.4 µM (inactive) | GI50 (SK-MEL-5): 32.6 µM (inactive) | GI50 (XF498): 25.4 µM (inactive) | GI50 (SK-MEL-2): > 100 µM (inactive) | GI50 (COLO 205): 40.5 µM (inactive) | GI50 (EKVX): 35.6 µM (inactive) | GI50 (DMS-273): 43.5 µM (inactive) | GI50 (KM12): 48.3 µM (inactive) | GI50 (M14): 45.9 µM (inactive) | GI50 (M19-MEL): > 100 µM (inactive) | GI50 (OVCAR-3): 49.3 µM (inactive) | GI50 (Malme-3M): > 100 µM (inactive) | GI50 (SW-620): 55.2 µM (inactive) | GI50 (HCC 2998): > 100 µM (inactive) | GI50 (UACC-62): 30 µM (inactive) | GI50 (HCT-15): 27.9 µM | GI50 (CCRF-CEM): 38.5 µM (inactive) | GI50 (NCI-H460): 27.8 µM (inactive) | GI50 (SF-539): 35.4 µM (inactive) | GI50 (SNB-75): 75.7 µM (inactive) | GI50 (UO-31): > 100 µM (inactive) | GI50 (786-0): 78 µM (inactive) | GI50 (ACHN): 44.9 µM (inactive) | GI50 (IGROV-1): 80 µM (inactive) | GI50 (U-251): 70.6 µM (inactive) | GI50 (A549): > 100 µM (inactive) | GI50 (RPMI-8226): 21.4 µM (inactive) | GI50 (OVCAR-8): 44.1 µM (inactive) | GI50 (SK-OV-3): 68.2 µM (inactive) | GI50 (UACC-257): 69.2 µM (inactive) | GI50 (SK-MEL-28): > 100 µM (inactive) | GI50 (SNB-19): 68.1 µM (inactive) | GI50 (HCT-116): 49 µM (inactive) | GI50 (SR): 30.3 µM (inactive) | GI50 (OVCAR-4): 68.4 µM (inactive) | GI50 (HOP-62): > 100 µM (inactive) | GI50 (MOLT-4): 29.2 µM (inactive) | GI50 (TK-10): 42 µM (inactive) | GI50 (SNB-78): > 100 µM (inactive) | GI50 (CAKI-1): 21.3 µM (inactive) | GI50 (HOP-92): 23.9 µM (inactive) | GI50 (NCI-H23): 32.4 µM (inactive) | GI50 (NCI-H522): 35.8 µM (inactive) | GI50 (OVCAR-5): 34.9 µM (inactive) | GI50 (LOX IMVI): 36.6 µM (inactive) | GI50 (K562): 40.8 µM (inactive) | GI50 (HOP-18): 21.1 µM (inactive) | GI50 (HT-29): 30.8 µM (inactive)

Cc1ccc(NC(=O)CCc2nc(N)nc(N)c2-c2ccccc2)cc1C
GI50 (LXFL 529): > 100 µM (inactive) | GI50 (SF-295): > 100 µM (inactive) | GI50 (HL-60): > 100 µM (inactive) | GI50 (KM-20L2): > 100 µM (inactive) | GI50 (DLD-1): > 100 µM (inactive) | GI50 (NCI-H226): > 100 µM (inactive) | GI50 (SN12C): > 100 µM (inactive) | GI50 (RXF 631): > 100 µM (inactive) | GI50 (SK-MEL-5): > 100 µM (inactive) | GI50 (XF498): > 100 µM (inactive) | GI50 (SK-MEL-2): > 100 µM (inactive) | GI50 (COLO 205): > 100 µM (inactive) | GI50 (EKVX): > 100 µM (inactive) | GI50 (DMS-273): > 100 µM (inactive) | GI50 (A498): > 100 µM (inactive) | GI50 (KM12): > 100 µM (inactive) | GI50 (M14): > 100 µM (inactive) | GI50 (M19-MEL): > 100 µM (inactive) | GI50 (OVCAR-3): > 100 µM (inactive) | GI50 (Malme-3M): > 100 µM (inactive) | GI50 (SW-620): > 100 µM (inactive) | GI50 (SF-268): > 100 µM (inactive) | GI50 (HCC 2998): > 100 µM (inactive) | GI50 (UACC-62): > 100 µM (inactive) | GI50 (HCT-15): > 100 µM | GI50 (CCRF-CEM): > 100 µM (inactive) | GI50 (NCI-H460): > 100 µM (inactive) | GI50 (SF-539): > 100 µM (inactive) | GI50 (SNB-75): 58.7 µM (inactive) | GI50 (UO-31): > 100 µM (inactive) | GI50 (786-0): > 100 µM (inactive) | GI50 (ACHN): > 100 µM (inactive) | GI50 (IGROV-1): > 100 µM (inactive) | GI50 (U-251): > 100 µM (inactive) | GI50 (A549): > 100 µM (inactive) | GI50 (RPMI-8226): > 100 µM (inactive) | GI50 (OVCAR-8): > 100 µM (inactive) | GI50 (SK-OV-3): > 100 µM (inactive) | GI50 (DMS-114): > 100 µM (inactive) | GI50 (UACC-257): > 100 µM (inactive) | GI50 (SK-MEL-28): > 100 µM (inactive) | GI50 (SNB-19): > 100 µM (inactive) | GI50 (HCT-116): > 100 µM (inactive) | GI50 (SR): > 100 µM (inactive) | GI50 (OVCAR-4): > 100 µM (inactive) | GI50 (HOP-62): > 100 µM (inactive) | GI50 (MOLT-4): > 100 µM (inactive) | GI50 (TK-10): > 100 µM (inactive) | GI50 (SNB-78): > 100 µM (inactive) | GI50 (CAKI-1): > 100 µM (inactive) | GI50 (HOP-92): > 100 µM (inactive) | GI50 (NCI-H23): > 100 µM (inactive) | GI50 (NCI-H522): > 100 µM (inactive) | GI50 (OVCAR-5): > 100 µM (inactive) | GI50 (K562): > 100 µM (inactive) | GI50 (HOP-18): > 100 µM (inactive) | GI50 (HT-29): > 100 µM (inactive)
